Article PMC9952215, “Giving a Hand: Synthetic Peptides Boost the Antifungal Activity of Itraconazole against Cryptococcus neoformans” (Antibiotics, 2023)
Values after ≈ are worked out from the molar mass of the structure shown.

Key:
[1] = tested on: C. neoformans (ATCC 32045); test: Combined antifungal activity (growth inhibition, absorbance 600 nm); format: cell-based, Cryptococcus neoformans; settings: YPD, 10^6 cells mL^−1, 24 h, 30 °C, A600, mean ± SD
Method: The combined antifungal activity was evaluated as described in [11]. The combinations with SAMPs and itraconazole were constituted of peptides MIC50 [7] + itraconazole (ITR) 500 (1×) µg mL^−1, peptides [5×D] + ITR [1×D], peptides [10×D] + ITR [5×D], and peptides [10×D] + ITR [10×D]. The cells were grown on YPD agar for […], and cryptococcal cells were then resuspended in YPD medium and standardized at 10^6 cells mL^−1. The assay was performed in 96-well plates and incubated for 24 h at 30 °C. Then, the absorbance was measured at 600 nm using an automated microplate reader (Epoch, Biotek, Santa Clara, CA, USA). The best combinations were used to study the mechanisms of action. […] Experiments were performed in three biological replications, and each biological replication was performed with three technical replicates. The statistical analyses were performed using GraphPad Prism (version 5.01) for Microsoft Windows. All data obtained in the assays were compared using standard deviation and the one-way analysis of variance (ANOVA), followed by the Tukey test (p < 0.05).

C. neoformans cells [2] = test: Cell membrane integrity / membrane pore formation (propidium iodide uptake, fluorescence microscopy, ImageJ counting); format: cell-based, Cryptococcus neoformans
Method: The cell membrane integrity of C. neoformans was evaluated as described in [7]. After incubation for 24 h, as described above, the samples were washed three times with sterile 0.15 M NaCl and centrifuged (5000× g 5 min at 4 °C) to remove the YPD medium. Then, the cells were incubated with propidium iodide (PI) for 30 min in the dark at room temperature (22 °C ± 2). Next, they were washed and centrifuged twice, under the same conditions as previously mentioned. […] The fluorescent C. neoformans cells were counted using ImageJ software using the Cell Counter plugin, according to the methodology described by Aguiar et al. […] The cells were counted in the bright and fluorescent field of the same picture. Cells presenting fluorescence were called positive cells, and those without fluorescence were called negative cells. […] The cells were calculated using the equation: number of positive cells × 100/number of cells in the bright field. The number of negative cells was calculated following the equation: number of cells in the bright field—number of positive cells. Three different images were used to count the cells.

C. neoformans cells [3] = test: Overproduction of reactive oxygen species (DCFH-DA, fluorescence microscopy, ImageJ counting); format: cell-based, Cryptococcus neoformans
Method: The ROS overproduction was evaluated according to the method Dias et al.. After incubation for 24 h, as described above, the samples were washed three times with sterile 0.15 M NaCl and centrifuged (5000× g 5 min at 4 °C) to remove the YPD medium. The analysis was conducted, as described, by PI assay. Next, 9 μL of 2',7' […] diacetate-DCFH-DA (Sigma, St. Louis, MI, USA)-was added and incubated in the dark for 30 min at room temperature (22 °C ± 2). Next, they were washed and centrifuged twice under the same conditions as those mentioned above. Then, the cryptococcal cells were observed under a fluorescence microscope (Olympus System BX 41, Tokyo, Japan), with an excitation wavelength of 488 nm and an emission wavelength of 525 nm. The fluorescent C. neoformans cells were counted using ImageJ software using the Cell Counter plugin, according to the methodology described by Aguiar et al.. The cells were counted in the bright and fluorescent field of the same picture. Cells presenting fluorescence were called positive cells, and those without fluorescence were called negative cells. […] The cells were calculated using the equation: number of positive cells × 100/number of cells in the bright field. The number of negative cells was calculated following the equation: number of cells in the bright field-number of positive cells. Three different images were used to count the cells.

C. neoformans [4] = tested on: C. neoformans; parameters: method as in earlier work; settings: previously defined; ref 7 (Aguiar et al.); cited from earlier work
C. neoformans [5] = settings: cited from earlier work; for MIC50 against C. neoformans, alone / concentration in the combination of ibuprofen and ITR: ref 17 (Rocha et al.); for concentration in the combination of ibuprofen and ITR: ibuprofen combined with ITR
Source text: For example, […] et al. reported the combined activity against C. neoformans of the aminoglycoside K20 with ITR. […] In contrast, when combined, the concentration to reach the same activity decreases to 187 and 1 for K20 and ITR [16]. In another study, Rocha et al. evaluated the synergistic effect between ibuprofen and ITR against C. neoformans. […] However, the co ...

| Compound | % of Inhibition of C. neoformans Growth ([1]; single agent at 1× (ITR 500; Mo-CBP3-PepII 25; RcAlb-PepII, RcAlb-PepIII, PepGAT, PepKAA 0.04 µg mL^−1)) [%] | % of Inhibition of C. neoformans Growth ([1]; single agent at 5×D (ITR 100; Mo-CBP3-PepII 5; other peptides 0.008 µg mL^−1)) [%] | % of Inhibition of C. neoformans Growth ([1]; single agent at 10×D (ITR 50; Mo-CBP3-PepII 2.5; other peptides 0.004 µg mL^−1)) [%] | positive PI-fluorescent cells (C. neoformans cells [2]; ITR alone (dilution not given; ITR 1× in Figure 1 text), ImageJ count of three images) [%] | membrane pore formation (PI red fluorescence), qualitative (C. neoformans cells [2]; single agent at 1×, fluorescence images, Figure 1) | DCFH-DA-fluorescent cells (C. neoformans cells [3]; ITR alone (dilution not stated), ImageJ count of three images) [%] | ROS accumulation (DCFH-DA fluorescence), qualitative (C. neoformans cells [3]; ITR alone, fluorescence images, Figure 2) | MIC50 against C. neoformans (C. neoformans [4]) [µg/mL] | concentration to reach the same activity when combined (C. neoformans [5]; K20 combined with ITR, unit not given, ref 16 (Shrestha et al.)) | concentration presenting activity against C. neoformans, alone (C. neoformans [5]; agent alone, ref 16 (Shrestha et al.)) [µg/mL] | MIC50 against C. neoformans, alone (C. neoformans [5]; agent alone) [µg/mL] | concentration in the combination of ibuprofen and ITR (C. neoformans [5]) [µg/mL] |
| --- | --- | --- | --- | --- | --- | --- | --- | --- | --- | --- | --- | --- |
| CCC(C)n1ncn(-c2ccc(N3CCN(c4ccc(OCC5COC(Cn6cncn6)(c6ccc(Cl)cc6Cl)O5)cc4)CC3)cc2)c1=O (centres unmarked) [ITR, itraconazole] | 45.3 ± 0.021 | 12.2 ± 0.003 | 0 | 0 | no red fluorescence | 0 | no ROS accumulation | 500 (≈ 709 µM) | 1 | 780 | 500 | 125 |
| CC(C)Cc1ccc(C(C)C(=O)O)cc1 (centres unmarked) [ibuprofen] | – | – | – | – | – | – | – | – | – | – | 512 | 16 |
